Test results: US6489356B2, “Method for treating pain in humans” (priority 2000, dated 2002)
“Also recorded” adds a separate entry of the source. Where two headings read alike, the source gives them in different places.

Columns and labels:
[1] = tested on: carrageenan-induced hyperalgesia in rats; assay: carrageenan paw model of inflammatory pain, Hargreaves thermal withdrawal; format: in vivo, rat
Procedure: Compound T62 was tested for its efficacy in treating inflammatory pain by use of the carrageenan paw model. Carrageenan is a water-extractable polysaccharide obtained from seaweeds. […] Carrageenan-induced hyperalgesia is believed to occur as a consequence of sensitization of primary afferent nociceptors and neuron plasticity intrinsic to the spinal cord.
Animals were prepared with chronic lumbar intrathecal catheters. Baseline measurement of hindpaw withdrawal latency to thermal stimulation were obtained on a Hargreaves device. Animals received a single intrathecal (IT) injection of Compound T-62 ranging from 0.5 to 40 μg. Withdrawal thresholds were measured on a Hargreaves device every 30 minutes for three hours.

[2] = biological target: T1, A1 receptor in rat forebrain membranes (Rattus norvegicus, UniProt P25099); conditions: compound 30 in reference (5), Bruns et al.; read-out: ED50 as an enhancer; cited from earlier work
T1 construct: from tissue; host or cells: rat forebrain membranes
T1 sequence (P25099 1-326): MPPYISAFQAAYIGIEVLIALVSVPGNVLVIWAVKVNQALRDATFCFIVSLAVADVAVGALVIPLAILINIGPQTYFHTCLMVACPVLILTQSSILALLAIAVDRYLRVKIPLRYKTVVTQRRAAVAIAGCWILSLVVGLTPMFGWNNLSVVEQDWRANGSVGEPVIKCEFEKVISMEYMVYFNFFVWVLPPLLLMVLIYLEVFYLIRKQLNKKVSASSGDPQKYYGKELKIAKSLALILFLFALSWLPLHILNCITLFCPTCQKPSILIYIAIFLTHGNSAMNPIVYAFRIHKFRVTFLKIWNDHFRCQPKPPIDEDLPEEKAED

[3] = tested on: phenylbenzoquinone-induced writhing in mice; assay: phenylbenzoquinone (PBQ) writhing test; format: in vivo, mouse
Procedure: Testing for use of Compound T62 in treatment of persistent chemical pain was performed following the phenylbenzoquinone (PBQ) writhing tests. This method detects general analgesic activity. Mice were injected with phenylbenzoquinone (PBQ) (1.25 mg/kg i.p.). […] The number of writhes was counted for 10 minutes beginning 5 minutes after injection of PBQ. 8 mice were studied for each treatment group and the test was performed blind.

[4] = tested on: mechanical hypersensitivity after spinal nerve ligation in the rat; assay: spinal nerve ligation model of neuropathic pain, von Frey withdrawal threshold; format: in vivo; conditions: for dose returning sensitivity (withdrawal threshold) to normal: rat
From the text: Following Animal Care and Use Committee approval, mechanical hypersensitivity was generated in male Sprague-Dawley rats as described in the following paper. (Kim,S. H. and Chung, J. M., An experimental model for peripheral neuropathy produced by segmental spinal nerve ligation in the rat, Pain, 50 (1992) 355-363. Briefly, under general anesthesia with inhalational halothane, the left L5 and L6 spinal nerves were identified through a small laminotomy and tightly ligated. Approximately one week later, an intrathecal catheter was placed under general anesthesia by insertion under direct vision of a polyethylene catheter through a small slit in the dura at the cisterna magnum and advanced 8.5 cm such that the catheter tip resided in the lower lumbar intrathecal space. Animals were studied approximately one week later.
Ligation of the lumbar spinal nerves results in a primarily unilateral increase in the sensitivity to light touch on the operated side. Sensitivity was assessed via application of calibrated von Frey filaments. The withdrawal threshold was determined using an up down method as described in Chaplan, S. R., Bach, F. W., Pogrel, J. W., Chung, J. M., and Yaksh, T. L., Quantitative assessment of tactile allodynia in the rat paw, J. Neurosci. Methods, 53 (1994) 55-63.
Von Frey filaments are scientific apparatus designed to apply a pre-determined pressure to a surface. These filaments are flexible bristles with a flat tip. The applied pressure is determined by the diameter of the filament.
In these studies, the animals are placed on top of a wired cage. The goal of these studies is to determine the pressure at which the animal perceives the pressure applied as painful and lifts its foot. The scientist determines the discomfort pressure threshold by pressing the tip of von Frey filaments, one filament at a time, to the bottom of the foot through the wired cage floor. When a slight pressure is applied to the underside of the foot, the animal feels the sensation but it will not lift its foot because this sensation is not painful, or uncomfortable.
In a normal animal, the threshold for discomfort is approximately 35 g pressure. In an animal whose foot is rendered more sensitive to pressure, the withdrawal threshold is less than 4 g. That is, a pressure that is not perceived as pain in the unaltered, control foot will be perceived as a painful stimulus in the surgically altered foot.
Mechanical withdrawal threshold was determined before and at intervals after intrathecal injection of Compound T62, 1-5 μg. […] In the study, the investigator was blinded to the dose administered. Compound T62 was dissolved in cyclodextrin, which had no effect on withdrawal threshold when administered alone.
Animals received 6 injections, each separated by a minimum of 4 days to prevent development of tolerance. The withdrawal threshold to mechanical stimulation with von Frey filaments was determined before and at intervals of […] following intrathecal injection, then again at 20 hours following injection. A dose response was determined using the time of peak effect (2 hr for each compound) and the ED50 determined by linear regression.
The ED50 for the mixture (total of each component combined) was determined by linear regression, an isobologram constructed, and the observed ED50 was compared to the theoretical ED50 by a t-test as previously described in Tallarida, R. J., Statistical analysis of drug combinations for synergism, Pain, 49 (1992) 93-97. In order to determine the site of action of Compound T62, two experiments were performed. […]
Compound T62 was dissolved in 45% […] (RBI, Natick, Mass. ). Drugs were administered intrathecal in a 5 μl volume followed by 10 μl of saline to flush the catheter.
Data are presented as median±25th and 75th percentile (for raw withdrawal thresholds) or by mean±SE. Linear regression was used to calculate the ED50 for each drug alone and for the fixed ratio combination. […]

[5] = tested on: mouse; format: in vivo; conditions: 1024 mg/kg i.p., listed as Compound T-62
Procedure: As indicated above, Compound T62 is an effective treatment for neuropathic pain at a dose of 15 mg/kg by intraperitoneal (i.p.) injection. In addition, the safety of T62 was evaluated at 64, 128, 256, 512 and 1024 mg/kg (Table 1).

[6] = biological target: T2, human recombinant A1 adenosine receptors (Homo sapiens, UniProt P30542); assay: cyclic AMP production in CHO cells expressing the A1 adenosine receptor; format: cell-based
T2 construct: expressed in transfected cells; host or cells: CHO cells (CHO: huA1)
T2 sequence (P30542 1-326): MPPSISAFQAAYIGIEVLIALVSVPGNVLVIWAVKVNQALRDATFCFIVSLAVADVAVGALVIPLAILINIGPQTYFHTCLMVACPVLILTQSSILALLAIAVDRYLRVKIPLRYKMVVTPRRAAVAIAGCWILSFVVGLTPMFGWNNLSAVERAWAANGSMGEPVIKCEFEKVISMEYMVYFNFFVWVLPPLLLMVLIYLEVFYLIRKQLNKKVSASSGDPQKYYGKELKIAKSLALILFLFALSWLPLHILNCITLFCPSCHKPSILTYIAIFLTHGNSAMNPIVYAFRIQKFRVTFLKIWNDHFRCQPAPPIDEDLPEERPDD
Procedure: Cells were removed from liquid nitrogen storage when needed, and grown in Ham's F-12 culture medium with 10% fetal bovine serum and 0.5 mg/ml of antibiotic G-418. Aliquots of cells were placed into 12-well cultured plates with culture medium, serum, and antibiotic for 48-72 hours, by which time the cells had grown to a confluent monolayer.
To begin an experiment, growth medium was removed from the culture plates and cells were washed once with Hanks' buffered saline solution. […] After 6 min of incubation at 36° C. in the presence of drugs, the incubation solution was removed and hydrochloric (final concentration, 50 mM) was added to terminate drug action.
The content of cAMP in acidified extracts of cells was determined by radioimmunoassay as previously described (12). The compounds listed in reference 7 (U.S. Pat. No. 5,939,432) relating to allosteric enhancers, were tested using this method.
Because the magnitude of the effects of allosteric enhancers on cells changed with time and batch of cells, the actions of each test compound to enhance the effect of CPA (and thus reduce cAMP content of CHO cells) were normalized to the response of cells to 10 μM PD 81,723. […] Enhancement by Compound T62 began at 10 nM. There was no antagonism of this effect even at 10 μM of Compound T62.

[7] = biological target: T3, A1 adenosine receptor (Cavia porcellus, UniProt P47745); conditions: isolated guinea pig left atrium; cited from earlier work
T3 construct: functional studies conducted in the isolated guinea pig left atrium and isolated ileum; from tissue; host or cells: isolated guinea pig ileum
T3 sequence (P47745 1-326): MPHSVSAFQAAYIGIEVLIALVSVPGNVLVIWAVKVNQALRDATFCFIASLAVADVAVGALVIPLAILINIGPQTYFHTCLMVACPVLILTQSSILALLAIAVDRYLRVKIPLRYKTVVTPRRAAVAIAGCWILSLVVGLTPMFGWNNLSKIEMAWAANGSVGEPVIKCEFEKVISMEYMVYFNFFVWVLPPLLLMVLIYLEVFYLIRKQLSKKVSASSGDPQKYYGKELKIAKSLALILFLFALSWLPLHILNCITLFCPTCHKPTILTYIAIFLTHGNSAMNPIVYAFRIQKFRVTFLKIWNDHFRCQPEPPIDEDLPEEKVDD

[8] = biological target: T3, A1 adenosine receptor; conditions: isolated ileum; cited from earlier work
[9] = biological target: T4, A1 adenosine receptor (Rattus norvegicus, UniProt P25099); conditions: rat brain, cited from earlier work
T4 construct: from tissue; host or cells: rat brain
T4 sequence (P25099 1-326): T1 sequence (P25099 1-326)

In the case of Nc1sc2c(c1C(=O)c1ccc(Cl)cc1)CCCC2 [Compound T62, (2-Amino-4,5,6,7-tetrahydrobenzo[b]thiophen-3-yl)(4-chlorophenyl)methanone], the “dose sufficient to completely reverse hypersensitivity of the inflamed foot to pre-carrageenan levels” value ([1]; intrathecal, rats with 2 mg intraplantar carrageenan, n=4) is given as 1 µg, the “effect on withdrawal thresholds” value ([1]; normal rats, intrathecal 0.5 to 40 μg) is given as “no significant effect” and the EC50 [2] is given as 15.3 µM. The “NUMBER OF WRITHES (5 to 1 5 min after phenylbenzoquinone) mean ± s.e.m.” value (from here on “NUMBER OF WRITHES”) ([3]; 128 mg/kg i.p. −30 minutes) was 13.9 ± 3.4, the “percent change from control” value ([3]; 128 mg/kg i.p. −30 minutes) was −18% and the “NUMBER OF WRITHES” value ([3]; 128 mg/kg i.p. −1 hour) was 10.9 ± 2.6. For the same molecule, the “percent change from control” value ([3]; 128 mg/kg i.p. −1 hour) was −58%, the “NUMBER OF WRITHES” value ([3]; 128 mg/kg i.p. −2 hours) was 17.3 ± 2.0 and the “percent change from control” value ([3]; 128 mg/kg i.p. −2 hours) was −38%. The “NUMBER OF WRITHES” value ([3]; 128 mg/kg i.p. −4 hours) was 13.1 ± 3.5, the “percent change from control” value ([3]; 128 mg/kg i.p. −4 hours) was −36% and the “NUMBER OF WRITHES” value ([3]; 128 mg/kg i.p. −8 hours) was 15.3 ± 4.1. For the same molecule, the “percent change from control” value ([3]; 128 mg/kg i.p. −8 hours) was “+11%”, the “NUMBER OF WRITHES” value ([3]; 512 mg/kg i.p. −30 minutes) was 5.9 ± 2.2 and the “percent change from control” value ([3]; 512 mg/kg i.p. −30 minutes) was −65%. For the same molecule, the “NUMBER OF WRITHES” value ([3]; 512 mg/kg i.p. −1 hour) was 6.4 ± 1.0, the “percent change from control” value ([3]; 512 mg/kg i.p. −1 hour) was −75% and the “NUMBER OF WRITHES” value ([3]; 512 mg/kg i.p. −2 hours) was 3.5 ± 1.8. For the same molecule, the “percent change from control” value ([3]; 512 mg/kg i.p. −2 hours) was −87%, the “NUMBER OF WRITHES” value ([3]; 512 mg/kg i.p. −4 hours) was 4.8 ± 1.5 and the “percent change from control” value ([3]; 512 mg/kg i.p. −4 hours) was −77%. For the same molecule, the “NUMBER OF WRITHES” value ([3]; 512 mg/kg i.p. −8 hours) was 6.0 ± 1.9, the “percent change from control” value ([3]; 512 mg/kg i.p. −8 hours) was −56% and the “dose required for efficacy” value ([3]; intraperitoneal, mice, chemically induced pain) was 128 mg/kg. For the same molecule, the “duration of effect on withdrawal threshold” value ([4]; IP injection, 15 mg/kg) was “at least 4 hours”, the effect on hypersensitivity ([4]; intraperitoneal injection, 15 mg/kg) was “effective to reduce hypersensitivity” and the “dose required for efficacy” value ([4]; intraperitoneal, rats, neuropathic pain) was 15 mg/kg. For the same molecule, the “effect of intraperitoneal Compound T62 after A1 antagonist” value ([4]; intrathecal DPCPX (5 μg)) was “blocked”, the motor effect ([4]; intrathecal doses larger than 1-5 μg) was “obvious motor blockade” and the “duration of effect on withdrawal threshold” value ([4]; intrathecal injection) was “over 4 hours”. For the same molecule, the “time of peak effect” value ([4]; intrathecal injection) was 2 h, the “dose returning sensitivity (withdrawal threshold) to normal” value ([4]; intrathecal injection) was 5 µg and the Irwin test observations [5] was “tremor and tip-toe gait”. The “enhancer potency compared to PD 81,723” value ([6]; CHO:huA1 cells cAMP) was “more potent enhancer than PD 81,723”, the “concentration at which enhancement of the CPA induced inhibition of cyclic AMP production began” value ([6]; CHO:huA1 cells, forskolin 1 μM, CPA, normalized to 10 μM PD 81,723) was 10 nM and the “antagonism of the A1 receptor” value ([6]; at 10 μM Compound T62) was “does not antagonize; also recorded: no antagonism”.
For CCOC(=O)N1CCc2c(sc(N)c2C(=O)c2ccccc2)C1 [PD 78,416], the “enhancement of the effect of the agonist CPA” value [7] is listed as “enhanced the effect”, the “enhancement of the effect of the agonist CPA” value [8] is listed as “failed to enhance” and the “enhancement of [3H]CHA binding” value ([9]; competition studies) is listed as “not observed”. The “effect on dissociation of [3H]CHA binding” value [9] was “retards the dissociation”.
For Nc1ncnc2c1ncn2[C@@H]1O[C@H](CO)[C@@H](O)[C@H]1O [adenosine, reference compound], the “time of peak effect” value ([4]; intrathecal injection) was 2 h and the “dose returning sensitivity (withdrawal threshold) to normal” value ([4]; intrathecal injection) was 30 µg.
